Among the data in patent US20250235460A1, “COMBINATION THERAPY USING GLUCOSE-DEPENDENT INSULINOTROPIC POLYPEPTIDE RECEPTOR ANTAGONIST COMPOUNDS AND GLP-1 RECEPTOR AGONIST COMPOUNDS” (Pfizer Inc., priority 2024, published 2025) are EC50 and Emax values, retold here.

Assay [1] concerns the target human GLP-1R (Homo sapiens, UniProt P43220, L260F). Briefly: CHO GLP-1R Clone C6 cAMP HTRF agonist assay (Assay 2, low receptor density). The format is cell-based. The conditions noted are these: for EC50: CHO GLP-1R clone C6, cAMP HTRF, geometric mean; for Emax: CHO GLP-1R clone C6, arithmetic mean, relative to saturating GLP-1 (1 μM). An excerpt: In Table 5 and Table 6, assay data are presented to two (2) significant figures as the geometric mean (EC50s) and arithmetic mean (Emax) based on the number of replicates listed (Number). A blank cell means there was no data for that Example or the Emax was not calculated.
A general note: Time-resolved FRET reads energy transfer from a long-lived donor to a nearby acceptor.

The target of assay [2] is human GLP-1R (Homo sapiens, UniProt P43220, G168S). Briefly: CHO GLP-1R Clone H6 cAMP HTRF agonist assay (Assay 1, high receptor density). In kind it is cell-based. The note with it: for EC50: CHO GLP-1R clone H6, cAMP HTRF, geometric mean; for Emax: CHO GLP-1R clone H6, arithmetic mean, relative to saturating GLP-1 (1 μM), read-out: Assay 1 Emax (%). The gist of the method:
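Replicate runs were pooled. Potencies were averaged geometrically and maximal efficacies arithmetically, then rounded to two significant figures.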

human GLP-1R (Homo sapiens, UniProt P43220, L260F), sequence (P43220 24-463 L260F): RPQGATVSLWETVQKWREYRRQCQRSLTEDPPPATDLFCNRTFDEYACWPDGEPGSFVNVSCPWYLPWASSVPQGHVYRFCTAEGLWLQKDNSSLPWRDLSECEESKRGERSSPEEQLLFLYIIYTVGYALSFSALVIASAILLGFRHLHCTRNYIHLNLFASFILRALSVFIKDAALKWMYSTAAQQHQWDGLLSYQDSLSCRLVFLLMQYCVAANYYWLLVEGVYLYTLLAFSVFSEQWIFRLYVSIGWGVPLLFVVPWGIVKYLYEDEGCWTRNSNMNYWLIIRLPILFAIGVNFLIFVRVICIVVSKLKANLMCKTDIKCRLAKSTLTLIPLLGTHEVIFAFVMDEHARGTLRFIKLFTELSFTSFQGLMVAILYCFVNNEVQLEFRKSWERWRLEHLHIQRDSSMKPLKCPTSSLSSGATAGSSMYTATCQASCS
human GLP-1R (Homo sapiens, UniProt P43220, G168S), sequence (P43220 24-463 G168S): as the sequence (P43220 24-463 L260F) above, with G145S, F237L counted along it

A word on the EC50: it is the midpoint of the concentration-response curve. A low value points to higher potency in that assay. The Emax is the size of the effect at its maximum, as opposed to the concentration needed. Consider `COCCn1c(CN2CCC(c3cccc(OCc4cc(F)c(Cl)cc4F)n3)CC2)nc2ccc(C(=O)O)cc21` [Compound 219B, 2-((4-(6-((4-chloro-2,5-difluorobenzyl)oxy)pyridin-2-yl)piperidin-1-yl)methyl)-1-(2-methoxyethyl)-1H-benzo[d]imidazole-6-carboxylic acid], for which, at human GLP-1R [1], the EC50 was 3.8 nM and the Emax came to 93%. Moreover, at human GLP-1R [2], the EC50 turned out to be 0.3 nM and the Emax was 93%.
On human GLP-1R [1], `N#Cc1ccc(COc2cccc(C3CCN(Cc4nc5ccc(C(=O)O)nc5n4Cc4cnco4)CC3)n2)c(F)c1` [Compound 248B, 2-[(4-{6-[(4-cyano-2-fluorobenzyl)oxy]pyridin-2-yl}piperidin-1-yl)methyl]-3-(1,3-oxazol-5-ylmethyl)-3H-imidazo[4,5-b]pyridine-5-carboxylic acid] returned an EC50 of 32 nM and an Emax of 79%. Also, at human GLP-1R [2], the EC50 turned out to be 2 nM and the Emax was 82%.
Turning to `Cn1c(CN2CCC(c3cccc(OCc4cccc(C#N)c4)n3)CC2)nc2ccc(C(=O)O)cc21` [Compound 231B, 2-[(4-{6-[(3-cyanobenzyl)oxy]pyridin-2-yl}piperidin-1-yl)methyl]-1-methyl-1H-benzimidazole-6-carboxylic acid], on human GLP-1R [1], the EC50 was 4.4 nM and the Emax came out at 95%. Moreover, on human GLP-1R [2], the response was half-maximal at 0.3 nM (EC50) and the Emax is 80%.
The like results for `CC1(Cn2c(CN3CCC(c4cccc(OCc5ccc(Cl)cc5F)n4)CC3)nc3ccc(C(=O)O)cc32)CCOC1` (stereo not drawn) [Compound 289B, 2-[(4-{6-[(4-chloro-2-fluorobenzyl)oxy]pyridin-2-yl}piperidin-1-yl)methyl]-1-[(3-methyltetrahydrofuran-3-yl)methyl]-1H-benzimidazole-6-carboxylic acid] were, in that order, 1100 nM, 79%, 36 nM and 73%.
The like results for `COCCn1c(CN2CCN(c3cccc(OCc4ccc(Cl)cc4F)n3)[C@@H](C)C2)nc2ccc(C(=O)O)cc21` [Compound 183B, 2-{[(3S)-4-{6-[(4-chloro-2-fluorobenzyl)oxy]pyridin-2-yl}-3-methylpiperazin-1-yl]methyl}-1-(2-methoxyethyl)-1H-benzimidazole-6-carboxylic acid] were, in that order, 3500 nM, 90%, 180 nM and 78%.
Turning to `N#Cc1ccc(COc2cccc(C3CCN(Cc4nc5ccc(C(=O)O)cc5n4Cc4ncco4)CC3)n2)c(F)c1` [Compound 139B, 2-[(4-{6-[(4-cyano-2-fluorobenzyl)oxy]pyridin-2-yl}piperidin-1-yl)methyl]-1-(1,3-oxazol-2-ylmethyl)-1H-benzimidazole-6-carboxylic acid], the EC50 at human GLP-1R [1] is 1200 nM; at human GLP-1R [2], 150 nM. The Emax on human GLP-1R [1] came to 44%; at human GLP-1R [2] it was 74%.
Turning to `N#Cc1ccc(COc2nc(C3CCN(Cc4nc5ccc(C(=O)O)cc5n4CC4CCOC4)CC3)ccc2F)cc1` (stereo not drawn) [Compound 361B, 2-[(4-{6-[(4-cyanobenzyl)oxy]-5-fluoropyridin-2-yl}piperidin-1-yl)methyl]-1-(tetrahydrofuran-3-ylmethyl)-1H-benzimidazole-6-carboxylic acid], the figures for the Emax on human GLP-1R [1] and at human GLP-1R [2] were 81% and 73%, respectively.
Consider `O=C(O)c1ccc2nc(CN3CCC(c4cccc(OCc5ccc(Cl)cc5F)n4)CC3)n(CCc3c[nH]cn3)c2c1` [Compound 316B, 2-[(4-{6-[(4-chloro-2-fluorobenzyl)oxy]pyridin-2-yl}piperidin-1-yl)methyl]-1-[2-(1H-imidazol-4-yl)ethyl]-1H-benzimidazole-6-carboxylic acid], for which the values for the EC50 on human GLP-1R [1] and on human GLP-1R [2] were 5600 nM and 450 nM, respectively. In addition, the figures for the Emax at human GLP-1R [1] and at human GLP-1R [2] were 76% and 71%, respectively.
